This note sets out measurements from US20120022047A1, “PROCESS FOR THE PURIFICATION OF ESLICARBAZEPINE ACETATE” (GLENMARK GENERICS LTD, priority 2009, published 2012).

A short description of data set [1]: Specific surface area by Brunauer-Emmett-Teller (B.E.T.) nitrogen absorption. The conditions noted are these: crystal particles, measured by B.E.T. The format is physicochemical. From the text: Specific surface area is defined in units of square meters per gram (m2/g). It is usually measured by nitrogen absorption analysis. In this analysis, nitrogen is absorbed on the surface of the substance. The amount of the absorbed nitrogen (as measured during the absorption or the subsequent desorption process) is related to the surface area via a formula known as the Brunauer Emmet Teller (B.E.T.) formula.

A short description of data set [2]: Particle size distribution by laser diffraction (Malvern Mastersizer). The format is physicochemical. Conditions: crystal particles obtained by the processes herein described. The text has this:
As used herein, the phrase, “particle size distribution (PSD)” means the cumulative volume size distribution of equivalent spherical diameters as determined by laser diffraction at 1 bar dispersive pressure in a Sympatec Helos equipment. d10, as used herein is defined as the particle size at which the cumulative percentage undersize is 10 (i.e. the bottom 10% of particles are less than or equal to the stated size). d50 means the median particle size and d90 is defined as the particle size at which the cumulative percentage undersize is 90 (i.e. the bottom 90% of particles are less than or equal to the stated size). The particle size of eslicarbazepine acetate was measured under following conditions. [table] In accordance with the invention, the size distribution of eslicarbazepine acetate particles is determined by laser diffraction. In the present invention, the method in the determination of the size of eslicarbazepine acetate particles employed a Malvern Mastersizer laser diffraction instrument. Samples of the eslicarbazepine acetate were suspended in hexane containing a surfactant, 1% Tween80®. The suspensions were mixed and then sonicated for 120 seconds to thoroughly disperse the eslicarbazepine acetate particles. The dispersion was then circulated in the flow cell of the Malvern Mastersizer for two minutes before particle size measurements were taken.

Regarding `CC(=O)O[C@H]1Cc2ccccc2N(C(N)=O)c2ccccc21` [eslicarbazepine acetate, (S)-(−)-10-(acetyloxy)-10,11-dihydro-5H-dibenz[b,f]-azepine-5-carboxamide], the Specific surface area entry in data set [1] is on record as “about 1.37 m^2/g”. Besides, in data set [2], the “Particle size distribution d 10” value worked out at 5.421 μm, the “Particle size distribution d 50 (median particle size)” value came to 19.780 μm and the “Particle size distribution d 90” value stood at 168.686 μm.
